In the series the test system is GENE-TOX genotoxicity assays, various organisms and cells. Nature of the series: GENE-TOX mutagenicity studies. The settings on record: for call: Assay Type: In vivo carcinogenicity studies.
[1] abbreviates: Species/Cell Type: Bacillus subtilis (H17 vs M45), Assay Type: Rec-assay, spot test, DNA effects (bacterial DNA repair), Assay Code: REW-, Evaluation Type: Evaluation A (Pre-1980).
Setting [2] is: Species/Cell Type: Bacillus subtilis (H17 vs M45T), Assay Type: Rec-assay, spot test, DNA effects (bacterial DNA repair), Assay Code: REXT, Evaluation Type: Evaluation A (Pre-1980).
Setting [3] is: Species/Cell Type: Drosophila melanogaster, Assay Type: Sex-linked recessive lethal gene mutation, Assay Code: SRLT, Evaluation Type: Evaluation A (Pre-1980).
Where [4] appears, read: Species/Cell Type: Drosophila melanogaster, Assay Type: Sex-linked recessive lethal gene mutation, Assay Code: SRL+, Evaluation Type: Evaluation A (Pre-1980).
Where [5] appears, read: Species/Cell Type: Nonhuman, Assay Code: CCG+L, Evaluation Type: Evaluation A (Pre-1980).
Where [6] appears, read: Species/Cell Type: Rabbit, Sex: Male, Assay Type: Sperm morphology, Assay Code: SPR+, Evaluation Type: Evaluation A (Pre-1980).
Where [7] appears, read: Species/Cell Type: Mouse, Sex: Male, Assay Type: Sperm morphology, Assay Code: SPI-, Evaluation Type: Evaluation A (Pre-1980).
Setting [8] is: Species/Cell Type: Bacillus subtilis (H17 vs M45), Assay Type: Rec-assay, spot test, DNA effects (bacterial DNA repair), Assay Code: REW+, Evaluation Type: Evaluation A (Pre-1980).
Where [9] appears, read: Species/Cell Type: Salmonella typhimurium (one or more of the five standard strains: TA98, TA100, TA1535, TA1537, and TA1538), Assay Type: Histidine reverse gene mutation, Ames assay, Assay Code: SAL+, Evaluation Type: Evaluation A (Pre-1980).
Setting [10] is: Species/Cell Type: Salmonella typhimurium (one or more of the five standard strains: TA98, TA100, TA1535, TA1537, and TA1538), Assay Type: Histidine reverse gene mutation, Ames assay, Assay Code: SALT, Evaluation Type: Evaluation A (Pre-1980).
The mark [11] stands for this setting: Species/Cell Type: Nonhuman, Assay Code: CCG+, Evaluation Type: Evaluation A (Pre-1980).

Activity calls are given as the source filed them. How the calls were made is not given here.

For `O=C(N[C@H](CO)[C@H](O)c1ccc([N+](=O)[O-])cc1)C(Cl)Cl`, the mutagenic call by setting is: (Species/Cell Type: Arabidopsis species, Assay Type: Gene mutation, Assay Code: ARM-, Evaluation Type: Evaluation A (Pre-1980)) “inactive; negative”; under setting [1], “inactive; negative”; under setting [2], “no conclusion”; under setting [3], “no conclusion”; (Species/Cell Type: Escherichia coli WP2, Assay Type: Tryptophan reverse gene mutation, Assay Code: WP2-, Evaluation Type: Evaluation A (Pre-1980)) “inactive; negative”; (Species/Cell Type: Escherichia coli polA (W3110 vs P3478), Assay Type: Rec-assay, DNA effects (bacterial DNA repair), Assay Code: RE2-, Evaluation Type: Evaluation A (Pre-1980)) “inactive; negative”. For the same compound, the mutagenic call runs as follows: (Species/Cell Type: Escherichia coli polA (W3119 vs P3478), Assay Type: Rec-assay, DNA effects (bacterial DNA repair), Assay Code: RE1-, Evaluation Type: Evaluation A (Pre-1980)) “inactive; negative”; (Species/Cell Type: Rodents, Sex: Male, Assay Type: Dominant lethal test, Assay Code: DLT+, Evaluation Type: Evaluation A (Pre-1980)) “active; positive”; (Species/Cell Type: Salmonella typhimurium (one or more of the five standard strains: TA98, TA100, TA1535, TA1537, and TA1538), Assay Type: Histidine reverse gene mutation, Ames assay, Assay Code: SAL-, Evaluation Type: Evaluation A (Pre-1980)) “inactive; negative”. Under “Species/Cell Type: Nonhuman, Assay Code: CCGT, Evaluation Type: Evaluation A (Pre-1980)”, the call is “no conclusion”. With `COC(C)C(O)(C(=O)OCC1=CC[N+]2([O-])CC[C@H](O)[C@H]12)C(C)C` (stereo not given in full), the mutagenic call under setting [4] was “active; positive”. In the case of `COc1cc(-c2ccc(-[n+]3nc(-c4ccccc4)nn3-c3ccc([N+](=O)[O-])cc3)c(OC)c2)ccc1-[n+]1nc(-c2ccccc2)nn1-c1ccc([N+](=O)[O-])cc1`, the mutagenic call under setting [2] is recorded as “no conclusion”. For `[Cd]`, the mutagenic call (Species/Cell Type: Human lymphocytes or leukocytes, Assay Type: Chromosome aberrations in vivo, Assay Code: CY8T, Evaluation Type: Evaluation A (Pre-1980)) is given as “no conclusion”. For the same compound, under setting [5], the call is “active; positive”.

On to `N#Cc1c(Cl)c(Cl)c(Cl)c(C#N)c1Cl`, for which the mutagenic call (Species/Cell Type: Hordeum vulgare (barley), Assay Type: Chromosome aberrations, Assay Code: HOC-, Evaluation Type: Evaluation A (Pre-1980)) was “inactive; negative”. Under setting [5], the call is “active; positive”.

Turning to `COc1ccc2c(c1)CCC(c1ccccc1)=C2c1ccc(OCCN2CCCC2)cc1`, the mutagenic call under setting [6] was “active; positive”. With `Nc1cccc(Cl)c1`, the mutagenic call under setting [7] was “inactive; negative”.

Take `O=[N+]([O-])[O-].O=[N+]([O-])[O-].[Cd+2]`: the mutagenic call under setting [8] was “active; positive”. Take `c1ccc(-c2ccc(C3CO3)cc2)cc1` (stereo not given): the mutagenic call under setting [9] was “active; positive”. For `CCCCC[C@H](O)/C=C/[C@@H]1[C@@H](C/C=C\CCCC(=O)O)[C@@H](O)C[C@H]1O`, under setting [6], the mutagenic call is “active; positive”.

For the compound `C=CC(=O)c1ccc2c(c1)OCO2`, the mutagenic call under setting [10] is on record as “no conclusion”. As for `CC(C(=O)O)c1ccc(-c2ccccc2)c(F)c1` (stereo not given), under “Species/Cell Type: Human lymphocytes, Assay Type: Sister-chromatid exchange (SCE) in vivo, Assay Code: SCY+, Evaluation Type: Evaluation B (Post-1980)”, the mutagenic call was “active; positive”. With `CC(=O)Nc1nc(-c2ccc([N+](=O)[O-])o2)cs1`, the mutagenic call runs as follows: under setting [8], “active; positive”; (Species/Cell Type: Escherichia coli WP2, Assay Type: Tryptophan reverse gene mutation, Assay Code: WP2+, Evaluation Type: Evaluation A (Pre-1980)) “active; positive”; (Species/Cell Type: Escherichia coli WP2 UVRA, Assay Type: Tryptophan reverse gene mutation, Assay Code: WPU-, Evaluation Type: Evaluation A (Pre-1980)) “inactive; negative”; (Species/Cell Type: Nonhuman, Assay Type: Sister-chromatid exchange (SCE) in vitro, Assay Code: SC2+D, Dose Response: With dose response, Evaluation Type: Evaluation B (Post-1980)) “active; positive”; under setting [9], “active; positive”. Also, under setting [11], the call is “active; positive”. As for `O=C(O)[C@@H]1[C@H](C(=O)O)[C@H]2CC[C@@H]1O2`, the mutagenic call (Species/Cell Type: Allium cepa, Assay Type: Chromosome aberrations, Assay Code: ALC+, Evaluation Type: Evaluation A (Pre-1980)) was “active; positive”.

Regarding `c1ccc2c(c1)ccc1nc3c(ccc4ccccc43)cc12`, where the note is “Species/Cell Type: Fischer rat embryo (RLV/1706) cells, Assay Type: Cell transformation, viral enhanced, Assay Code: CTR+, Evaluation Type: Evaluation A (Pre-1980)”, the mutagenic call is “active; positive”. Besides, under setting [11], the call was “active; positive”.

Turning to `C#CC(C)N(C)C(=O)Nc1ccc(Cl)cc1` (stereo not given), under “Species/Cell Type: Saccharomyces cerevisiae, Assay Type: Mitotic recombination or gene conversion, Assay Code: YEC-, Evaluation Type: Evaluation A (Pre-1980)”, the mutagenic call is “inactive; negative”. For `c1ccc2c(c1)ccc1ncccc12`, the mutagenic call (Species/Cell Type: Salmonella typhimurium (one or more of the five standard strains: TA98, TA100, TA1535, TA1537, and TA1538), Assay Type: Histidine reverse gene mutation, Ames assay, Assay Code: SAL+*, Activation: With metabolic activation, Evaluation Type: Evaluation A (Pre-1980)) is “active; positive”. Take `Clc1ccc(C(c2ccc(Cl)cc2)C(Cl)Cl)cc1`: the mutagenic call is “no conclusion” under setting [3]; “no conclusion” (Species/Cell Type: Escherichia coli polA (W3119 vs P3478), Assay Type: Rec-assay, DNA effects (bacterial DNA repair), Assay Code: RE1T, Evaluation Type: Evaluation A (Pre-1980)); “active; positive” (Species/Cell Type: Nonhuman, Assay Type: Chromosome aberrations in vitro, Assay Code: CY&+, Evaluation Type: Evaluation A (Pre-1980)); “active; positive” (Species/Cell Type: Serratia marcesens, Assay Type: Reverse gene mutation, host-mediated assay, Assay Code: HMC+, Evaluation Type: Evaluation A (Pre-1980)). Regarding `COc1cccc2c1C(=O)c1c(O)c3c(c(O)c1C2=O)C[C@@](O)(C(C)=O)C[C@@H]3O[C@@H]1C[C@@H](N(C)C)[C@@H](O)[C@@H](C)O1`, the mutagenic call under setting [10] is “no conclusion”.

For `ClC/C=C/CCl`, the mutagenic call under setting [4] is “active; positive”. In the case of `O=[N+]([O-])c1ccc(/C=C/c2cnc(N(CO)CO)nn2)o1`, under setting [11], the call was “active; positive”. With `CC(=O)O[C@@H]1[C@@H](O)[C@H]2O[C@@H]3C=C(C)C(=O)[C@@H](O)[C@]3(CO)[C@]1(C)[C@]21CO1`, the mutagenic call reads like this: under setting [1], “inactive; negative”; under setting [10], “no conclusion”. `Nc1ccc(I)cc1`: the mutagenic call under setting [7] was “inactive; negative”.

As for `[O]=[V](=[O])[OH]`, the mutagenic call under setting [8] was “active; positive”.
